Assay results published in article PMC7587356, “High-Throughput Screening for Inhibitors of the SARS-CoV-2 Protease Using a FRET-Biosensor” (Molecules, 2020).
Where a name gives a salt, the structure may show the parent alone. Read-outs that look alike come from different tables or passages of the source.

Molecular target: SARS-CoV-2 3CLpro (Severe acute respiratory syndrome coronavirus 2, UniProt P0DTD1)
Experiment: biochemical
Assay type: biochemical
Design: Replicate_1 / Replicate_2 / mean / mean (LOPAC_screen_w_protease): unit not given here
Conditions: for inhibition at 5 µM: 4 h
[1] = sheet LOPAC_screen_w_protease, primary screen of LOPAC1280 at 5 µM with protease, mean of the two replicates, read-out: mean
[2] = sheet LOPAC_screen_w_protease, primary screen of LOPAC1280 at 5 µM with protease, replicate 1, read-out: Replicate_1
[3] = sheet LOPAC_screen_w_protease, primary screen of LOPAC1280 at 5 µM with protease, replicate 2, read-out: Replicate_2
[4] = sheet LOPAC_screen_w_protease, LOPAC1280 primary screen with protease, 5 µM compound, mean of the two replicates, read-out: mean
[5] = sheet LOPAC_screen_w_protease, LOPAC1280 primary screen with protease, 5 µM compound, replicate 1, read-out: Replicate_1
[6] = sheet LOPAC_screen_w_protease, LOPAC1280 primary screen with protease, 5 µM compound, replicate 2, read-out: Replicate_2
[7] = sheet LOPAC_screen_w_protease, primary screen with protease, mean of two replicates, read-out: mean
[8] = sheet LOPAC_screen_w_protease, primary screen with protease, replicate 1, read-out: Replicate_1
[9] = sheet LOPAC_screen_w_protease, primary screen with protease, replicate 2, read-out: Replicate_2
[10] = sheet LOPAC_screen_w_protease, primary screen with protease, compound at 5 µM, mean of two replicates, read-out: mean
[11] = sheet LOPAC_screen_w_protease, primary screen with protease, compound at 5 µM, replicate 1, read-out: Replicate_1
[12] = sheet LOPAC_screen_w_protease, primary screen with protease, compound at 5 µM, replicate 2, read-out: Replicate_2
[13] = LOPAC1280 primary screen with protease, 5 µM compound, replicate 1, read-out: Replicate_1 (LOPAC_screen_w_protease)
[14] = LOPAC1280 primary screen with protease, 5 µM compound, replicate 2, read-out: Replicate_2 (LOPAC_screen_w_protease)
[15] = sheet LOPAC_screen_w_protease, primary screen with protease, 5 µM, mean of two replicates, read-out: mean
[16] = sheet LOPAC_screen_w_protease, primary screen with protease, 5 µM, replicate 1, read-out: Replicate_1
[17] = sheet LOPAC_screen_w_protease, primary screen with protease, 5 µM, replicate 2, read-out: Replicate_2
[18] = sheet LOPAC_screen_w_protease, LOPAC1280 at 5 µM, mean of two replicates, read-out: mean
[19] = sheet LOPAC_screen_w_protease, LOPAC1280 at 5 µM, replicate 1, read-out: Replicate_1
[20] = sheet LOPAC_screen_w_protease, LOPAC1280 at 5 µM, replicate 2, read-out: Replicate_2
[21] = LOPAC1280 primary screen with protease, 5 µM compound, mean of the two replicates
[22] = sheet LOPAC_screen_w_protease, LOPAC1280 primary screen at 5 µM, with protease, mean of the two replicates, read-out: mean
[23] = sheet LOPAC_screen_w_protease, LOPAC1280 primary screen at 5 µM, with protease, replicate 1, read-out: Replicate_1
[24] = sheet LOPAC_screen_w_protease, LOPAC1280 primary screen at 5 µM, with protease, replicate 2, read-out: Replicate_2
[25] = sheet LOPAC_screen_w_protease, primary screen with protease, 5 µM, mean of two replicates
[26] = sheet LOPAC_screen_w_protease, primary screen with protease, 5 µM, replicate 1
[27] = sheet LOPAC_screen_w_protease, primary screen with protease, 5 µM, replicate 2

For `CC(=O)O[C@H]1C[C@@H]2CC[C@@H]3[C@H](CC[C@@]4(C)[C@H]3C[C@H]([N+]3(C)CCCCC3)[C@@H]4OC(C)=O)[C@@]2(C)C[C@@H]1[N+]1(C)CCCCC1` [Pancuronium bromide], the inhibition at 5 µM [1] was 3.86%, the inhibition at 5 µM [2] was 2.32% and the inhibition at 5 µM [3] was 5.41%.

`COc1ccc(Cc2nccc3cc(OC)c(OC)cc23)cc1OC` [Papaverine hydrochloride] was tested, and the inhibition at 5 µM [4] was 5.63%, the inhibition at 5 µM [5] was 5.9% and the inhibition at 5 µM [6] was 5.37%.

Molecule `NC[C@@H]1O[C@H](O[C@H]2[C@@H](O)[C@H](O[C@@H]3[C@@H](O)[C@H](N)C[C@H](N)[C@H]3O[C@H]3O[C@H](CO)[C@@H](O)[C@H](O)[C@H]3N)O[C@@H]2CO)[C@H](N)[C@@H](O)[C@@H]1O` [Paromomycin sulfate] has an inhibition at 5 µM (sheet LOPAC_screen_w_protease, primary screen at 5 µM, mean of two replicates, read-out: mean (LOPAC screen with protease)) of 7.62%, an inhibition at 5 µM (sheet LOPAC_screen_w_protease, primary screen at 5 µM, replicate 1, read-out: Replicate_1 (LOPAC screen with protease)) of 8.4% and an inhibition at 5 µM (sheet LOPAC_screen_w_protease, primary screen at 5 µM, replicate 2, read-out: Replicate_2 (LOPAC screen with protease)) of 6.83%.

Work on `C=C1C(=O)O[C@H]2[C@H]1CC/C(C)=C/CC[C@@]1(C)O[C@@H]21` [Parthenolide] yielded an inhibition at 5 µM [1] of 3.43%, an inhibition at 5 µM [2] of 3.99% and an inhibition at 5 µM [3] of 2.86%.

With `CN1C(C)(C)CCCC1(C)C` [Pempidine tartrate] the inhibition at 5 µM [7] was 2.3%, the inhibition at 5 µM [8] was 2.5% and the inhibition at 5 µM [9] was 2.11%.

`CC(=O)CCCCn1c(=O)c2c(ncn2C)n(C)c1=O` [Pentoxifylline] was tested, and the inhibition at 5 µM [10] was 2.98%, the inhibition at 5 µM [11] was 2.78% and the inhibition at 5 µM [12] was 3.18%.

`C1CCc2nnnn2CC1` [Pentylenetetrazole] was tested, and the inhibition at 5 µM [13] was 0.452%, the inhibition at 5 µM [14] was 2.75% and the “mean (LOPAC_screen_w_protease)” value (LOPAC1280 primary screen with protease, 5 µM compound, mean of two replicates) was 1.601.

For `CCCN1C[C@H](CSC)C[C@@H]2c3cccc4[nH]cc(c34)C[C@H]21` [Pergolide methanesulfonate], the inhibition at 5 µM [15] was 0.241%, the inhibition at 5 µM [16] was 0.0285% and the inhibition at 5 µM [17] was 0.454%.

For `OCCN1CCN(CCCN2c3ccccc3Sc3ccc(Cl)cc32)CC1` [Perphenazine], the inhibition at 5 µM [18] was 1.14%, the inhibition at 5 µM [19] was 0.377% and the inhibition at 5 µM [20] was 1.91%.

Molecule `NCC(CP(=O)(O)O)c1ccc(Cl)cc1` (stereo not drawn) [Phaclofen] has a mean (sheet LOPAC_screen_w_protease, LOPAC1280 at 5 µM, mean of two replicates) of 1.154, a Replicate_1 (sheet LOPAC_screen_w_protease, LOPAC1280 at 5 µM, replicate 1) of -0.2982 and a Replicate_2 (sheet LOPAC_screen_w_protease, LOPAC1280 at 5 µM, replicate 2) of 2.606.

`NC(=Nc1ccccc1)NC(=O)c1nc(Cl)c(N)nc1N` [Phenamil methanesulfonate] gave an inhibition at 5 µM [7] of 2.43%, an inhibition at 5 µM [8] of 2.05% and an inhibition at 5 µM [9] of 2.81%.

With `NNCCc1ccccc1` [Phenelzine sulfate] the inhibition at 5 µM (read-out: Replicate_1) was 0.173%, the inhibition at 5 µM (read-out: Replicate_2) was -1.72% and the inhibition at 5 µM (read-out: mean) was -0.773%.

With `CN(C)CCC(c1ccccc1)c1ccccn1` (stereo not drawn) [Pheniramine maleate] the inhibition at 5 µM [15] was -0.749%, the inhibition at 5 µM [16] was 0.594% and the inhibition at 5 µM [17] was -2.09%.

`CC(COc1ccccc1)N(CCCl)Cc1ccccc1` (stereo not drawn) [Phenoxybenzamine hydrochloride] showed an inhibition at 5 µM [4] of 4.33%, an inhibition at 5 µM [5] of 4.24% and an inhibition at 5 µM [6] of 4.41%.

`Cc1ccc(N(CC2=NCCN2)c2cccc(O)c2)cc1` [Phentolamine mesylate] was tested, and the inhibition at 5 µM [15] was -0.0499%, the inhibition at 5 µM [16] was -0.162% and the inhibition at 5 µM [17] was 0.062%.

Work on `CCCCC1C(=O)N(c2ccccc2)N(c2ccccc2)C1=O` [Phenylbutazone] yielded an inhibition at 5 µM [4] of 6.15%, an inhibition at 5 µM [5] of 6% and an inhibition at 5 µM [6] of 6.3%.

For `O=C1NC(=O)C(c2ccccc2)(c2ccccc2)N1` [Phenytoin sodium], the inhibition at 5 µM [13] was 1.2%, the inhibition at 5 µM [14] was 2.6% and the “mean (LOPAC_screen_w_protease)” value [21] was 1.899.

Molecule `O=C(CCc1ccc(O)cc1)c1c(O)cc(O)cc1O` [Phloretin] has an inhibition at 5 µM (read-out: Replicate_1 (LOPAC screen with protease)) of 8.32%, an inhibition at 5 µM (read-out: Replicate_2 (LOPAC screen with protease)) of 5.55% and an inhibition at 5 µM (read-out: mean (LOPAC screen with protease)) of 6.94%.

Work on `CCCCCCCCCCCCCC(=O)O[C@@H]1[C@@H](C)[C@@]2(O)[C@@H](C=C(CO)C[C@]3(O)C(=O)C(C)=C[C@@H]23)[C@@H]2C(C)(C)[C@]12OC(C)=O` [Phorbol 12-myristate 13-acetate] yielded an inhibition at 5 µM (read-out: Replicate_1) of 1.97%, an inhibition at 5 µM (read-out: Replicate_2) of -0.596% and an inhibition at 5 µM (read-out: mean) of 0.686%.

With `C[C@@H]1O[C@@H]1P(=O)(O)O` [Phosphomycin disodium] the inhibition at 5 µM [15] was -0.258%, the inhibition at 5 µM [16] was -0.0304% and the inhibition at 5 µM [17] was -0.485%.

`O=C(O)CP(=O)(O)O` [Phosphonoacetic acid] showed an inhibition at 5 µM [22] of 0.854%, an inhibition at 5 µM [23] of 0.755% and an inhibition at 5 µM [24] of 0.954%.

`CC(C)C[C@H](NP(=O)([O-])O[C@H]1O[C@H](C)[C@@H](O)[C@H](O)[C@@H]1O)C(=O)N[C@@H](Cc1c[nH]c2ccccc12)C(=O)[O-].[Na+].[Na+]` [Phosphoramidon disodium] gave a mean [25] of 0.1697, a Replicate_1 [26] of 0.5227 and a Replicate_2 [27] of -0.1832.

`O=C([O-])CCC(NC(=O)c1ccccc1C(=O)[O-])C(=O)[O-].[Na+].[Na+].[Na+]` [Phthalamoyl-L-glutamic acid trisodium] gave a mean [25] of 0.2394, a Replicate_1 [26] of 0.8142 and a Replicate_2 [27] of -0.3354.

`COc1ccc(C(=O)NCc2cccnc2)cc1C(=O)NCc1cccnc1` [Picotamide] was tested, and the inhibition at 5 µM [22] was 0.551%, the inhibition at 5 µM [23] was 1.7% and the inhibition at 5 µM [24] was -0.597%.

Molecule `CC[C@@H]1C(=O)OC[C@@H]1Cc1cncn1C` [Pilocarpine nitrate] has an inhibition at 5 µM [15] of -0.33%, an inhibition at 5 µM [16] of -0.127% and an inhibition at 5 µM [17] of -0.532%.

In the case of `O=c1[nH]c2ccccc2n1C1CCN(CCCC(c2ccc(F)cc2)c2ccc(F)cc2)CC1` [Pimozide], the inhibition at 5 µM [10] was 2.77%, the inhibition at 5 µM [11] was 3.25% and the inhibition at 5 µM [12] was 2.29%.

In the case of `CC(N/C(=N\C#N)Nc1ccncc1)C(C)(C)C` (stereo not drawn) [Pinacidil], the inhibition at 5 µM [18] was 1.05%, the inhibition at 5 µM [19] was 2.49% and the inhibition at 5 µM [20] was -0.383%.

`CC(C)NCC(O)COc1cccc2[nH]ccc12` (stereo not drawn) [Pindolol] gave an inhibition at 5 µM [22] of 0.855%, an inhibition at 5 µM [23] of 0.309% and an inhibition at 5 µM [24] of 1.4%.

Molecule `O=S(=O)(O)C1CCNCC1` [Piperidine-4-sulphonic acid] has a mean (sheet LOPAC_screen_w_protease, LOPAC1280 primary screen with protease, 5 µM compound, mean of the two replicates) of 4.585, a Replicate_1 (sheet LOPAC_screen_w_protease, LOPAC1280 primary screen with protease, 5 µM compound, replicate 1) of 5.428 and a Replicate_2 (sheet LOPAC_screen_w_protease, LOPAC1280 primary screen with protease, 5 µM compound, replicate 2) of 3.743.

In the case of `NC(=O)CN1CCCC1=O` [Piracetam], the inhibition at 5 µM [1] was 3.49%, the inhibition at 5 µM [2] was 5.61% and the inhibition at 5 µM [3] was 1.37%.

`Cc1nc2ccccn2c(=O)c1CCN1CCC(C(=O)c2ccc(F)cc2)CC1` [Pirenperone] showed an inhibition at 5 µM [22] of 0.688%, an inhibition at 5 µM [23] of 0.852% and an inhibition at 5 µM [24] of 0.525%.

For `CN1CCN(CC(=O)N2c3ccccc3C(=O)Nc3cccnc32)CC1` [Pirenzepine dihydrochloride], the inhibition at 5 µM [13] was 2.98%, the inhibition at 5 µM [14] was 0.888% and the “mean (LOPAC_screen_w_protease)” value [21] was 1.931.

In the case of `Cc1ccc(=O)n(-c2ccccc2)c1` [Pirfenidone], the inhibition at 5 µM [1] was 4.02%, the inhibition at 5 µM [2] was 2.71% and the inhibition at 5 µM [3] was 5.33%.

`O=C(O)/C=C\C(=O)O.c1cnc(N2CCN(Cc3ccc4c(c3)OCO4)CC2)nc1` [Piribedil maleate] was tested, and the mean (sheet LOPAC_screen_w_protease, LOPAC1280 primary screen at 5 µM, with protease, mean of the two replicates) was 0.4342, the Replicate_1 (sheet LOPAC_screen_w_protease, LOPAC1280 primary screen at 5 µM, with protease, replicate 1) was -0.05723 and the Replicate_2 (sheet LOPAC_screen_w_protease, LOPAC1280 primary screen at 5 µM, with protease, replicate 2) was 0.9256.

Molecule `CN1C(C(=O)Nc2ccccn2)=C(O)c2ccccc2S1(=O)=O` [Piroxicam] has an inhibition at 5 µM [10] of 3.01%, an inhibition at 5 µM [11] of 1.9% and an inhibition at 5 µM [12] of 4.12%.
